The subject of assay [1] is Rice (Variety: Nipponbare). Nature of the assay: Test for evaluating promotion of root growth by hydroponics of rice (Test Examples 1-3). Type of assay: in vivo. On the procedure: Rice (Variety: Nipponbare)
(§1) A DMSO solution, which contained one of the compounds 14, 18, 21, 23, 26, 28, 29, 30, 35, 36, 37, 39 and 40 of the present invention at a concentration of 100,000 ppm, was added to Hoagland hydroponic solution (Hoagland and Arnon, California Agricultural Experiment Station 1950 Circular 347 pp. 34) of ¼-fold concentration at a volume ratio of 1/10,000. In this manner, hydroponic solutions containing one of the compounds 14, 18, 21, 23, 26, 28, 29, 30, 35, 36, 37, 39 and 40 of the present invention at 10 ppm were prepared respectively. As an untreated control plot, a hydroponic solution obtained by adding DMSO to Hoagland hydroponic solution of ¼-fold concentration at a volume ratio of 1/10,000 was used.
Rice seeds were soaked in a 1% aqueous sodium hypochlorite solution for 10 minutes, then soaked in a 70% ethanol solution for surface sterilization, and then washed with distilled water. The sterilized seeds were soaked in a hydroponic solution containing the test compound described above at 10 ppm and incubated in a dark place for 3 days at 28° C. to perform treatment for hastening germination.
Thereafter, 30 ml of hydroponic solution containing the test compound at 10 ppm was dispensed in a plastic tube (diameter of 20 mm×height of 113 mm) of which the side was covered with cardboard to block light. A float prepared using a styrene board and vinyl mesh was floated, and the rice seeds that had undergone the treatment for hastening germination were placed on the float on the surface of the hydroponic solution. The seeds were cultivated for 3 days at 26° C., an illuminance of 4,000 lux of the top surface of the tube, a humidity of 50%, and a day length of 16 hours.
The nursery plants of rice obtained after cultivating were measured in terms of the length of seminal root by using WinRHIZO system (manufactured by Regent Instruments Inc). For each test plot, an average of the measured values of the seminal root of 4 or 5 individuals were determined.
as §1, with “compounds 7, 8, 9, 10, 12, 17, 20,” for “compounds 14, 18,”, “21, 25, 27,” for “21, 23, 26,”, “30, 34,” for “30,”, “37, 38,” for “37,”, “of 10,000” for “of 100,000”, “at 1” for “at 10”
Rice seeds were soaked in a 1% aqueous sodium hypochlorite solution for 10 minutes, then soaked in a 70% ethanol solution for surface sterilization, and then washed with distilled water. The sterilized seeds were soaked in a hydroponic solution containing the test compound described above at 1 ppm and incubated in a dark place for 3 days at 28° C. to perform treatment for hastening germination.
Thereafter, 30 ml of hydroponic solution containing the test compound at 1 ppm was dispensed in a plastic tube (diameter of 20 mm×height of 113 mm) of which the side was covered with cardboard to block light. A float prepared using a styrene board and vinyl mesh was floated, and the rice seeds that had undergone the treatment for hastening germination were placed on the float on the surface of the hydroponic solution. The seeds were cultivated for 3 days at 26° C., an illuminance of 4,000 lux of the top surface of the tube, a humidity of 50%, and a day length of 16 hours.
The nursery plants of rice obtained after cultivation were measured in terms of the length of seminal root by using WinRHIZO system (manufactured by Regent Instruments Inc). […]

The test system of another assay is Nicotiana benthamiana. The assay is described as follows: Test for evaluating growth promotion under low-temperature stress by hydroponics of Nicotiana benthamiana (Test Examples 4-6). As to conditions: 7 days at 1.5±1.0° C. low-temperature stress, then 3 days at 22° C., green leaf area vs untreated control, read-out: value of a relative leaf area (equation (1)); for relative green leaf area after low-temperature stress at 10 ppm: compound at 10 ppm; for relative green leaf area after low-temperature stress at 1 ppm: compound at 1 ppm; for relative green leaf area after low-temperature stress at 0.1 ppm: compound at 0.1 ppm. Type of assay: in vivo. On the procedure: A DMSO solution, which contained one of the compounds 5, 14, 22, 23, 24, 25, 26, 28, 30, 31, 32, 33, 34, 35, 38, 39 and 40 of the present invention at a concentration of 10,000 ppm, was prepared. The DMSO solution of the compound of the present invention was added at a volume ratio of 1/1,000 to the Murashige•Scoog medium of a ½-fold concentration (a medium containing 2.3 g of mixed salts (manufactured by Wako Pure Chemical Industries, Ltd.), 200 mg of Myo-inositol (manufactured by Sigma-Aldrich Co. LLC.), 2 mg of nicotinic acid (manufactured by Wako Pure Chemical Industries, Ltd.), 2 mg of pyridoxine hydrochloride (manufactured by Wako Pure Chemical Industries, Ltd.), 20 mg of thiamine hydrochloride (manufactured by Wako Pure Chemical Industries, Ltd.), 20 g of sucrose (manufactured by Wako Pure Chemical Industries, Ltd.), and 1 g of MES (manufactured by DOJINDO LABORATORIES) per 1 L of water and having pH adjusted to 5.8), thereby preparing a medium containing the compound of the present invention at a concentration of 10 ppm.
Seeds of Nicotiana benthamiana were seeded in the 5 μL of the medium and cultured overnight at 22° C. Thereafter, 45 μL of the medium containing the compound of the present invention at a concentration of 10 ppm was added thereto, and the seeds are cultivated for 7 days at 22° C., an illuminance of 4,000 lux, and a day length of 16 hours, thereby the nursery plants raised from the Nicotiana benthamiana were treated with the compound.
Moreover, instead of the above medium a test plot, which was obtained by performing the same treatment by using a medium prepared by adding DMSO to the Murashige•Scoog medium of ½-fold concentration at a volume ratio of 1/1,000, was used as a control plot not treated with the compound.
The nursery plants of the Nicotiana benthamiana treated with the compound were subjected to low-temperature treatment by being cultivated for 7 days at 1.5±1.0° C., an illuminance of 2,000 lux, and a day length of 16 hours.
The nursery plants of the Nicotiana benthamiana having undergone the low-temperature stress treatment were cultivated for 3 days at 22° C., an illuminance of 4,000 lux, and a day length of 16 hours. Thereafter, the area of green leaf was quantified by Scanalyzer HTS (manufactured by LemnaTec GmbH). Moreover, the value of the control plot not treated with the compound that had not yet been subjected to the low-temperature stress treatment was measured in the same manner. A value of a relative leaf area was calculated based on the following equation (1), and if the value of a relative leaf area was 5 or greater, the compound was evaluated to have a mitigating effect. As a result of the evaluation, it was confirmed that when the plant was treated with one of the compounds 5, 14, 22, 23, 24, 25, 26, 28, 30, 31, 32, 33, 34, 35, 38, 39 and 40 of the present invention at 10 ppm, the value of a relative leaf area was 5 or greater, compared to the area of green leaf of the control plot not treated with compound. Accordingly, it was confirmed that the treatment using the compound of the present invention brings about a growth promotion effect. Relative leaf area=100*(a green area of a plot treated with the compound of the present invention−a green area of a control plot not treated with the compound of the present invention)/(a green area of a control plot not treated with the compound of the present invention that has not yet been subjected to low-temperature stress treatment−a green area of a control plot not treated with the compound of the present invention) Equation (1): […]
A DMSO solution, which contained one of the compounds 6, 7, 8, 11, 12, 15, 19, 23, 24, 25, 28, 30, 31, 33, 34, 36, 37, 38 and 39 of the present invention at a concentration of 1,000 ppm, was prepared. […]

Data on 13 molecules can be found in US9872493B2, “Method for promoting plant growth” (SUMITOMO CHEMICAL COMPANY, LIMITED, priority 2012, dated 2018).

The structures appear in SMILES notation.

With `COC(=O)c1csc2ccc(C(F)(F)F)cc12` [Compound 14, methyl 5-trifluoromethylbenzo[b]thiophene-3-carboxylate], the “length of seminal root compared with the untreated control plot (in words)” value in assay [1] (10 ppm) is “obviously longer”. In addition, the relative green leaf area after low-temperature stress at 10 ppm in the assay with Nicotiana benthamiana is no less than 5%.

In the case of `O=C(O)c1c(C(F)(F)F)sc2ccccc12` [Compound 15, 2-trifluoromethylbenzo[b]thiophene-3-carboxylic acid], the “length of seminal root compared with the untreated control plot (in words)” value in assay [1] (0.1 ppm) was “obviously longer”. Moreover, the relative green leaf area after low-temperature stress at 1 ppm in the assay with Nicotiana benthamiana is no less than 5%.

As to `NC(=O)c1csc2cccc(C(F)(F)F)c12` [Compound 19], in assay [1] (0.1 ppm), the “length of seminal root compared with the untreated control plot (in words)” value was “obviously longer”. The relative green leaf area after low-temperature stress at 1 ppm with Nicotiana benthamiana is no less than 5%.

With `Cc1sc2ccccc2c1C(=O)O` [Compound 20], the “length of seminal root compared with the untreated control plot (in words)” value in assay [1] (0.1 ppm) and in assay [1] (1 ppm) was “obviously longer” throughout. For the same molecule, the relative green leaf area after low-temperature stress at 0.1 ppm with Nicotiana benthamiana is no less than 5%.

Take `NC(=O)c1c(C(F)(F)F)sc2ccccc12` [Compound 23]: the “length of seminal root compared with the untreated control plot (in words)” value in assay [1] (10 ppm) is “obviously longer”. In the assay on Nicotiana benthamiana, the relative green leaf area after low-temperature stress at 1 ppm was no less than 5% and the relative green leaf area after low-temperature stress at 10 ppm was no less than 5%.

On to `O=C(Nc1ccccc1)c1c(C(F)(F)F)sc2ccccc12` [Compound 25], for which the “length of seminal root compared with the untreated control plot (in words)” value in assay [1] (1 ppm) is recorded as “obviously longer”. In the assay on Nicotiana benthamiana, the relative green leaf area after low-temperature stress at 1 ppm was no less than 5% and the relative green leaf area after low-temperature stress at 10 ppm is no less than 5%.

Regarding `O=C(NCc1ccccc1)c1c(C(F)(F)F)sc2ccccc12` [Compound 26], the “length of seminal root compared with the untreated control plot (in words)” value in assay [1] (0.1 ppm) was “obviously longer”. Moreover, the “length of seminal root compared with the untreated control plot (in words)” value in assay [1] (10 ppm) was “obviously longer”. In the assay on Nicotiana benthamiana, the relative green leaf area after low-temperature stress at 0.1 ppm is no less than 5% and the relative green leaf area after low-temperature stress at 10 ppm is no less than 5%.

Regarding `COC(=O)c1csc2cc(C(F)(F)F)ccc12` [Compound 28], in assay [1] (0.1 ppm), the “length of seminal root compared with the untreated control plot (in words)” value is “obviously longer”. Moreover, the “length of seminal root compared with the untreated control plot (in words)” value in assay [1] (1 ppm) is on record as “obviously longer”. The “length of seminal root compared with the untreated control plot (in words)” value in assay [1] (10 ppm) was “obviously longer”. Further, in the assay with Nicotiana benthamiana, the relative green leaf area after low-temperature stress at 0.1 ppm is no less than 5%, the relative green leaf area after low-temperature stress at 1 ppm is no less than 5% and the relative green leaf area after low-temperature stress at 10 ppm was no less than 5%.

As for `CCOC(=O)c1csc2cc(C(F)(F)F)ccc12` [Compound 29], the “length of seminal root compared with the untreated control plot (in words)” value in assay [1] (0.1 ppm), in assay [1] (1 ppm) and in assay [1] (10 ppm) was “obviously longer” in each case. In the assay with Nicotiana benthamiana, the relative green leaf area after low-temperature stress at 0.1 ppm was no less than 5%.

Consider `NC(=O)c1csc2cc(C(F)(F)F)ccc12` [Compound 30], for which the “length of seminal root compared with the untreated control plot (in words)” value in assay [1] (0.1 ppm) is given as “obviously longer”. For the same molecule, the “length of seminal root compared with the untreated control plot (in words)” value in assay [1] (1 ppm) is on record as “obviously longer”. For the same molecule, the “length of seminal root compared with the untreated control plot (in words)” value in assay [1] (10 ppm) is on record as “obviously longer”. For the same molecule, in the assay with Nicotiana benthamiana, the relative green leaf area after low-temperature stress at 0.1 ppm was no less than 5%, the relative green leaf area after low-temperature stress at 1 ppm is no less than 5% and the relative green leaf area after low-temperature stress at 10 ppm was no less than 5%.

For the molecule `CNC(=O)c1csc2cc(C(F)(F)F)ccc12` [Compound 31], the “length of seminal root compared with the untreated control plot (in words)” value in assay [1] (0.1 ppm) is “obviously longer”. Besides, in the assay with Nicotiana benthamiana, the relative green leaf area after low-temperature stress at 0.1 ppm is no less than 5%, the relative green leaf area after low-temperature stress at 1 ppm is no less than 5% and the relative green leaf area after low-temperature stress at 10 ppm was no less than 5%.

As to `O=C(O)c1csc2c(C(F)(F)F)cccc12` [Compound 34], the “length of seminal root compared with the untreated control plot (in words)” value in assay [1] (0.1 ppm) is “obviously longer”. The “length of seminal root compared with the untreated control plot (in words)” value in assay [1] (1 ppm) is “obviously longer”. Moreover, in the assay on Nicotiana benthamiana, the relative green leaf area after low-temperature stress at 0.1 ppm is no less than 5%, the relative green leaf area after low-temperature stress at 1 ppm is no less than 5% and the relative green leaf area after low-temperature stress at 10 ppm was no less than 5%.

`COC(=O)c1csc2c(C(F)(F)F)cccc12` [Compound 35]: the “length of seminal root compared with the untreated control plot (in words)” value in assay [1] (0.1 ppm), in assay [1] (1 ppm) and in assay [1] (10 ppm) was “obviously longer” throughout. Besides, the relative green leaf area after low-temperature stress at 0.1 ppm in the assay on Nicotiana benthamiana was no less than 5%. For the same molecule, in the assay on Nicotiana benthamiana, the relative green leaf area after low-temperature stress at 10 ppm was no less than 5%.
